US20130039956A1, “USE OF NITROCARBOXYLIC ACIDS FOR THE TREATMENT, DIAGNOSIS AND PROPHYLAXIS OF AGGRESSIVE HEALING PATTERNS” (priority 2010, published 2013)

Experiments:
macrophages = assay: Foreign body model (fusion of macrophages, IL-4); format: cell-based; conditions: polymeric coating on stainless steel; compared with native FA; further: key: 0: not superior to native FA (control); +: Superior to native FA; ++: superior to both; +++: outstanding effect
Excerpt: Organisms react to the contact with a not completely biocompatible surface with a stereotypic chain of reactions. This is preceded by aggregation of plasmaproteins which initiate adhesion of monocytes. As a response to incompatibility, structural changes and fusion of those monocytes to form giant cells occur. The formation of giant cells is a key component in the development of a foreign body reaction. […] Predictability of foreign body reaction has been validated in an in-vitro model by monitoring fusion of macrophages in response to IL-4 exposition. Using this model a polymeric coating of a stainless steel support material containing variable amounts of nitro fatty acids or native fatty acids or just coated with the sole polymer were exposed to plasma with various concentrations of vitronectin.

pericardial strips = assay: Cold induced injury in a whole tissue ex-vivo model (pericardium); format: cell-based, Wistar rats; conditions: 200 μmol, 10 min, two cooling cycles; compared with native FA; further: key: 0: not superior to native FA (control); +: Superior to native FA; ++: superior to both; +++: outstanding effect
Excerpt: To determine whether nitrated fatty acids can be used to preserve cells and tissues from cold or cryoinjury, an in vitro model utilizing murine epicardium was established. The experimental set-up should reduce the possibility of ischemia or reperfusion injury to a minimum, but at the same time allow differentiation of the contribution of ischemia/reperfusion injury-triggered cell death, which is known to occur almost exclusively via apoptosis, whereas cell death induced by cold injury almost exclusively results in necrosis.
The pericardial sac was carefully resected in 24 anesthetized Wistar rats (180-270 g) of either sex. Care was taken to grasp the pericardium with a forceps only at the cutting edges and reduce traumatization of the central portions of the pericardium to a minimum. After resection, the cutting edge and the former apex area of the pericardium were dissected, as to obtain flat tissue strips which were placed immediately in the culture medium (DMEM) containing 10% FCS and antibiotics (penicillin, streptomycin). Tissue samples were cultured in an oxygen atmosphere at 18° C. for 2 days. […] Then the pericardial strips were cut into 4 pieces of equal size. One piece was further cultivated at 37° C. without undergoing the cooling cycles, thus, serving as the control. In each of three investigations, one piece was bathed in a solution (0.9% saline and 1% SDS) containing 200 μmol nitro-fatty acid or contained 200 μmol of the corresponding native fatty acid, for 10 min at a temperature of 18° C. One piece of pericardium was bathed in a solution without fatty acids under otherwise identical conditions. All samples were cooled by continuously decreasing from ambient temperature at a rate of 3° C./min to a minimum temperature of […]. After 1 hour, the samples were rewarmed at a rate of 3° C./min by continuously increasing the temperature until a temperature of 18° C., was achieved. Thereafter an identical cooling and rewarming cycle was performed. After the second cooling cycle, the tissue pieces were further cultured in the culture medium for 1 day allowing continuous adaptation to an ambient temperature of 37° C. For analytical preparations the pericardial pieces were out and further processed. A direct TUNEL assay (Roche) was use for quantification of apoptosis, an annexin V/propidium iodide exclusion assay (Roche) was used to quantify the number of necrotic cells, and viability was determined by the WST-8 assay. Furthermore, the LDH release was quantified in the supernatants.
To rule out that cell death has been induced by ischemia or reperfusion (reoxygenation), in one series of experiments, a control sample was incubated with an all-caspase inhibitor (Q-VD-OPH, BioVision, USA) reconstituted in DMSO before the sample was exposed to cold.

[1] = test system: human corneal fibroblasts; assay: Model for fibrosis induction (3D corneal stroma, TGF-β1); format: cell-based; conditions: TGF-β1 over 7 days; compared with native FA; further: key: 0: not superior to native FA (control); +: Superior to native FA; ++: superior to both; +++: outstanding effect
Method: Cornea injury may ultimately lead to a scar by way of corneal fibrosis, which is characterized by the presence of myofibroblasts and improper deposition of extracellular matrix components (ECM). An established in vitro model to study the healing response to trauma of corneal stroma was used. The in vitro 3-dimensional (3D) model of a corneal stroma was produced by human corneal fibroblasts stimulated with stable vitamin C which mimics corneal development. TGF-β1 was added to the medium over 7 days. […] There were no morphological changes of the myofibroblasts when treated with nitro fatty acids.

[2] = test system: Human epithelial lung cells (A549); assay: Membrane protein mediated cytotoxicity (NaF) in epithelial cells, MTT assay; conditions: 10 and 50 μmol, 2 hours preincubation, NaF 1-8 mmol; compared with native FA
Method: Human epithelial lung cells (A549) were cultured and transferred to an isotonic medium. Cell suspensions were incubated with saline solution, native fatty acid (10 and 50 μmol), or nitro fatty acid (10 and 50 μmol) for 2 hours. Sodium fluoride (NaF) was added to achieve concentrations between 1 and 8 mmol. Cells were separated and washed after 24 hours of exposure. The MTT assay was used to evaluate apoptosis rates.

**Q.** What does the source list for `CCCCCCCCCCC/C=C(/CCCCC(=O)O)[N+](=O)[O-]` [compound 21, 6-nitro-cis-6-octadecenoic acid]?
**A.** Relative efficacy in foreign body model (macrophages): +; Relative effect on cold induced injury (pericardial strips): +

**Q.** Which “Relative efficacy in model for fibrosis induction” value (“Relative efficacy in model” for short) [1] does the source give for `CCCCCC=CCC=C(CC=CCC=CCCCC(=O)O)[N+](=O)[O-]` [compound 14, 11-nitro-5,8,11,14-eicosatrienoic acid] here?
**A.** +

**Q.** Which results are given for `CCCCC/C=C\C/C(=C\CCCCCCCC(=O)O)[N+](=O)[O-]` [compound 2, 10-nitro-cis-linoleic acid]?
**A.** Relative efficacy in model for fibrosis induction [1]: ++; Relative effect on NaF-induced cytotoxicity [2]: ++; Relative effect on cold induced injury (pericardial strips): ++

**Q.** `CCCCCCCC/C=C(/CCCCCCCC(=O)O)[N+](=O)[O-]` [compound 1, 9-nitro cis-oleic acid] was tested. Which “Relative efficacy in model” value [1] did it give?
**A.** ++

**Q.** And the “Relative effect on NaF-induced cytotoxicity” value [2]?
**A.** ++

**Q.** And the “Relative effect on cold induced injury” value (pericardial strips)?
**A.** ++

**Q.** How did the “Relative efficacy in model” value [1] turn out when `CCCCCCCC/C(=C/CCCCCCCC(=O)O)[N+](=O)[O-]` [compound 3, 10-nitro-cis-oleic acid] was run?
**A.** +

**Q.** And the “Relative effect on NaF-induced cytotoxicity” value [2]?
**A.** +

**Q.** And the “Relative effect on cold induced injury” value (pericardial strips)?
**A.** +

**Q.** With `CCCCCC=CCC=C(CC=CC/C=C\CCCC(=O)O)[N+](=O)[O-]` [compound 22, 11-nitro-cis-5,8,11,14-eicosatetraenoic acid] as the compound, how does the “Relative efficacy in model” value [1] read?
**A.** ++

**Q.** And the “Relative efficacy in foreign body model” value (macrophages)?
**A.** ++

**Q.** What about the “Relative effect on NaF-induced cytotoxicity” value [2] of the same compound?
**A.** ++

**Q.** What about the “Relative effect on cold induced injury” value (pericardial strips) of the same compound?
**A.** ++

**Q.** With `CCCCCCCC/C=C(/CCCCCCCCCCCCCC(=O)O)[N+](=O)[O-]` [compound 8, 15-nitro-cis-15-tetracosenoic acid] as the compound, how does the “Relative efficacy in model” value [1] read?
**A.** +

**Q.** For “9,10-nitro-trans-oleic acid [compound 15]”, which “Relative efficacy in model” value [1] is on record?
**A.** +

**Q.** For `CCCCC=C(C=CC=CCCCCCCCC(=O)O)[N+](=O)[O-]` [compound 11, 13-nitro-octadeca-9,11,13-trienoic acid], which “Relative efficacy in model” value [1] is on record?
**A.** +

**Q.** Which “Relative efficacy in model” value [1] does the source give for `CC/C=C\C/C=C\C/C=C(/CCCCCCCC(=O)O)[N+](=O)[O-]` [compound 6, 9-nitro-all-cis-9-12,15-octadecatrienoic acid] here?
**A.** ++

**Q.** What about the “Relative effect on cold induced injury” value (pericardial strips) of the same compound?
**A.** ++

**Q.** What does the source list for 9,10-nitro-cis-oleic acid [compound 10]?
**A.** Relative efficacy in model for fibrosis induction [1]: ++; Relative effect on cold induced injury (pericardial strips): +
